Measured values as given in US20210238169A1, “PROCESS FOR PREPARING A COMPOUND OF FORMULA (XIII)” (PULMOCIDE LIMITED, priority 2014, published 2021).

How the values were obtained:
[1] = tested on: Aspergillus fumigatus (NCPF2010); assay: Aspergillus fumigatus invasion in human alveoli bilayers (transwells), GM in lower chamber; type: cell-based; conditions: for DFB50 (days taken to reach a fungal burden of 50% of control) / GM Levels in the Lower Chamber, OD value / GM Levels in the Lower Chamber, % inhibition vs. control: Compound (I) 0.1 μg/mL upper chamber, Posaconazole 0.01 μg/mL lower chamber
Method: In vitro models of human alveoli, consisting of a bilayer of human alveolar epithelial cells and endothelial cells, were prepared as previously described (Hope et al., 2007). […] Primary human pulmonary artery endothelial cells (HPAEC) were harvested and diluted to 10^6 cells/mL in EGM-2 media (Lonza, Basel, Switzerland). Transwells were inverted and the cell suspension (100 μL/well) was applied to the base of each transwell. The inverted transwells were incubated at RT within a flow hood for 2 hr after which they were turned upright. EGM-2 media was added to the lower (700 μL/well) and upper (100 μL/well) compartments and the transwells were incubated for 48 hr (37° C., 5% CO2). The EGM-2 media in the lower compartment was then replaced with fresh EGM-2 media. A549 cells were harvested and diluted to 5×10^5 cells/mL in 10% EBM, then added to the upper compartment (100 μL/well) of all transwells and the plates incubated for 72 hr (37° C., 5% CO2). Conidia of Aspergillus fumigatus (the itraconazole sensitive strain NCPF2010 and the itraconazole resistant strain TR34-L98H) were cultured separately in Sabouraud dextrose agar for 3 days. A stock conidia suspension of either strain was prepared from a Sabouraud dextrose agar culture by washing with PBS-tween (10 mL; PBS containing 0.05% Tween-20, 100 U/mL Penicillin and 100 U/mL Streptomycin). The conidia count was assessed using a Neubauer haemocytometer and adjusted to 10^6 conidia/mL with PBS. A working stock of conidia was prepared in EBM (conc of 10^5 conidia/mL) immediately prior to use.
The media in the upper compartment was aspirated and that containing the appropriate test and reference compounds, or vehicle, were added (100 μL/well). Transwells were then transferred into the 24-well plate containing the test and reference compounds or DMSO vehicle. After incubation for 1 hr (35° C., 5% CO2) the conidia suspension (10 μL/well) was added to the upper compartment of each transwell. Plates were then incubated for 24 hr (35° C., 5% CO2). Supernatants from each compartment (5 μL/compartment) were collected and stored (−20° C.). Media was replaced daily after collection of the supernatants and all wells were treated with test and reference compounds or with DMSO, as described above, for 3 days. Samples continued to be collected until fungal growth was visible by eye in all transwells. The levels of GM in the supernatant in lower compartment were then measured by ELISA (BioRad, CA, USA) as an index of Aspergillus fumigatus invasion.

[2] = tested on: Aspergillus fumigatus (ATCC 13073); assay: Body weight loss of Aspergillus fumigatus infected, immunocompromised, neutropenic mice; type: in vivo; conditions: 0.4 mg/mL intra-nasally, prophylactic; for Body weight loss caused by infection with A. fumigatus: % weight loss compared with day 0
Method: Aspergillus fumigatus (ATCC 13073 [strain: NIH 5233], American Type Culture Collection, Manassas, Va., USA) was grown on Malt agar (Nissui Pharmaceutical, Tokyo, Japan) plates for 6-7 days at RT (24±1° C.). Spores were aseptically dislodged from the agar plates and suspended in sterile distilled water with 0.05% Tween 80 and 0.1% agar. On the day of infection, spore counts were assessed by haemocytometer and the inoculum was adjusted to obtain a concentration of 1.67×10^8 spores mL^−1 of physiological saline.
On day 0, animals were infected with the spore suspension (35 μL intra-nasally).
Test compounds were administered intra-nasally (35 μL of a suspension of 0.08-2.00 mg/mL in physiological saline) once daily, 30 min before infection on day 0 and then on days 1, 2 and 3 (representing prophylactic treatment) or on days 1, 2 and 3 only (representing therapeutic treatment). For extended prophylactic treatment, test compounds (35 μL of a suspension of 0.0032 or 0.016 mg/mL in physiological saline) were administered intra-nasally once daily for seven days; then 30 min before infection on day 0, and thereafter, either on days 1, 2 and 3 after infection, or on day 0 only. The effects of these treatment paradigms were compared with those obtained when treatment was restricted to one day and 30 min before inoculation and then on days 1, 2 and 3 post infection; or reduced still further to one day and 30 min before infection only.

[3] = tested on: Aspergillus fumigatus (ATCC 13073); assay: Survival of severely immunocompromised, neutropenic mice infected with Aspergillus fumigatus, monotherapy or combination; type: in vivo; conditions: Compound (I) 0.4 mg/mL (in), Posaconazole 1 mg/kg (po), once daily days 1-6
Method: On day 0, animals were infected intranasally with 35 μL of the spore suspension (1.67×10^8 spores/mL in physiological saline) of Aspergillus fumigatus (ATCC 13073 [strain: NIH 5233]). Compound (I) prepared as a suspension in isotonic saline (0.4 mg/mL) was dosed once daily by an intra-nasal injection (35 μL/mouse) on days 1-6 after infection. Posaconazole (1 mg/kg) was given orally once daily on days 1-6 after infection. Body weight and survival were monitored daily up to day 7.

Structure (SMILES) | DFB50 (days taken to reach a fungal burden of 50% of control) [1] [days] | GM Levels in the Lower Chamber, % inhibition vs. control ([1]; Treatment Day 1) [%] | GM Levels in the Lower Chamber, OD value ([1]; Treatment Day 1) [OD] | GM Levels in the Lower Chamber, % inhibition vs. control ([1]; Treatment Day 2) [%] | GM Levels in the Lower Chamber, OD value ([1]; Treatment Day 2) [OD] | GM Levels in the Lower Chamber, % inhibition vs. control ([1]; Treatment Day 3) [%] | GM Levels in the Lower Chamber, OD value ([1]; Treatment Day 3) [OD] | GM Levels in the Lower Chamber, % inhibition vs. control ([1]; Treatment Day 4) [%] | GM Levels in the Lower Chamber, OD value ([1]; Treatment Day 4) [OD] | GM Levels in the Lower Chamber, % inhibition vs. control ([1]; Treatment Day 5) [%] | GM Levels in the Lower Chamber, % inhibition vs. control ([1]; Treatment Day 7) [%] | GM Levels in the Lower Chamber, OD value ([1]; Treatment Day 7) [OD] | GM Levels in the Lower Chamber, % inhibition vs. control ([1]; Treatment Day 8) [%] | GM Levels in the Lower Chamber, OD value ([1]; Treatment Day 8) [OD] | % Inhibition of weight loss ([2]; Day 1) [%] | Body weight loss caused by infection with A. fumigatus ([2]; Day 1) [%] | % Inhibition of weight loss ([2]; Day 2) [%] | Body weight loss caused by infection with A. fumigatus ([2]; Day 2) [%] | % Inhibition of weight loss ([2]; Day 3) [%] | Body weight loss caused by infection with A. fumigatus ([2]; Day 3) [%] | also measured
CC[C@@H]([C@H](C)O)n1ncn(-c2ccc(N3CCN(c4ccc(OC[C@@H]5CO[C@@](Cn6cncn6)(c6ccc(F)cc6F)C5)cc4)CC3)cc2)c1=O [Posaconazole] | 1.45 | 91 | 0.064 | 15 | 1.01 | 4.1 | 1.14 | 1.1 | 1.17 | −0.6 | 0.3 | 1.17 | 0.8 | 1.15 | 21 | 7.3 ± 2.0 | 6 | 13.4 ± 1.9 | 6 | 18.1 ± 2.0 | GM Levels in the Lower Chamber, OD value ([1]; Treatment Day 0): 0 OD; GM Levels in the Lower Chamber, OD value ([1]; Treatment Day 5): 1.18 OD; GM Levels in the Lower Chamber, % inhibition vs. control ([1]; Treatment Day 6): −1.1%; GM Levels in the Lower Chamber, OD value ([1]; Treatment Day 6): 1.19 OD; Median survival [3]: 6.5 days; No. of survivors on day 7 [3]: 0/6; survivors on day 7 (%) [3]: 0%
Cc1cc(N2CCN(c3ccc(C(=O)Nc4ccc(F)cc4)cc3)CC2)ccc1OC[C@@H]1CO[C@@](Cn2cncn2)(c2ccc(F)cc2F)C1 [Compound (I), 4-(4-(4-(((3R,5R)-5-((1H-1,2,4-triazol-1-yl)methyl)-5-(2,4-difluorophenyl)tetrahydrofuran-3-yl)methoxy)-3-methylphenyl)piperazin-1-yl)-N-(4-fluorophenyl)benzamide] | 1.13 | 86 | 0.091 | 3.4 | 1.15 | 3.7 | 1.14 | 4.5 | 1.13 | 0.3 | 0.9 | 1.16 | 2.8 | 1.13 | 34 | 6.1 ± 1.8 | 39 | 8.7 ± 2.5 | 42 | 11.1 ± 5.6 | effect of combination therapy on invasion in alveoli bilayers ([1]; Compound (I) combined with intraconazole, voriconazole or caspofungin (results not shown)): synergistic or additive effect; Median survival [3]: 6 days; No. of survivors on day 7 [3]: 0/6; survivors on day 7 (%) [3]: 0%
